Experiment [1] relates to Nucleic Acid. The experiment in a line: Inhibition of c-myc G-quadruplex formation in oligonucleotide Pu27 after 3 mins by PCR stop assay. It counts as nucleic-acid assay.
The subject of experiment [2] is HL-60. Description: Cytotoxicity against human HL60 cells after 48 hrs by MTT assay. The format is functional, cell-based. The following applies: HL-60, 48 h. (Tetrazolium assays rely on reduction of a dye to a coloured formazan, in cell work by metabolically active cells.)
The subject of experiment [3] is Nucleic Acid. Description: Thermal stability of c-MYC FPu18T G-quadruplex DNA assessed as stabilization temperature at 2 uM by FRET assay in presence of 10 uM duplex DNA competitor. It counts as nucleic-acid assay.
Experiment [4] has as its system HL-60. Description: Induction of growth phase arrest in human HL60 cells expressing c-myc gene at 0.5 uM after 16 days. The format is functional, cell-based.
In the next experiment the test system is NCI-H460. Description: Cytotoxicity against human NCI-H460 cells after 48 hrs by MTT assay. The format is functional, cell-based. The following applies: NCI-H460, 48 h.
Experiment [5] deals with Nucleic Acid. The experiment in a line: Binding affinity to oligonucleotide Pu18 DNA assessed as induction of Pu18G-quadruplex DNA at 262 nm bandwidth by circula dichroism spectroscopy. The format is nucleic-acid assay.
Experiment [6] concerns ECV-304. The experiment in a line: Inhibition of c-myc gene transcription in human ECV304 cells assessed as c-myc mRNA level normalized to GAPDH mRNA level by RT-PCR. It counts as functional, cell-based.
Experiment [7] relates to ECV-304. The experiment in a line: Cytotoxicity against human ECV304 cells after 48 hrs by MTT assay. It counts as functional, cell-based. The following applies: ECV-304, 48 h.
Experiment [8] deals with Nucleic Acid. The experiment in a line: Thermal stability of F10T duplex DNA assessed as stabilization temperature at 2 uM by FRET assay. The format is nucleic-acid assay.
A short description of experiment [9]: Cytotoxicity against human GLC82 cells after 48 hrs by MTT assay. The format is functional, cell-based. The following applies: GLC82, 48 h.
Experiment [10] has as its system ECV-304. Description: Induction of growth phase arrest in human ECV304 cells at 0.5 uM after 16 days. It counts as functional, cell-based.
Experiment [11] has as its system Nucleic Acid. Description: Thermal stability of c-MYC FPu18T G-quadruplex DNA assessed as stabilization temperature at 2 uM by FRET assay. It counts as nucleic-acid assay.
For experiment [12], the system named is Nucleic Acid. Description: Binding affinity to oligonucleotide Pu18 DNA assessed as induction of Pu18G-quadruplex DNA negative peak at 240 nm bandwidth by circula dichroism spectroscopy. The format is nucleic-acid assay.
Experiment [13] concerns HL-60. The experiment in a line: Inhibition of c-myc gene transcription in human HL60 cells assessed as c-myc mRNA level normalized to GAPDH mRNA level by RT-PCR. It counts as functional, cell-based.
Experiment [14] relates to Nucleic Acid. Description: Binding affinity to oligonucleotide Pu18 DNA assessed as induction of Pu18G-quadruplex DNA positive shift to at 262 nm bandwidth by circula dichroism spectroscopy. It counts as nucleic-acid assay.

SMILES strings stand for the structures. Calls of active or inactive are those of the source. The rule behind the calls is not given here. Where only a bound is given, the exact number is not on record here.

For `COc1ccc2cc3[n+](c4c2c1N(CCCCCCN)C=C4)CCc1cc2c(cc1-3)OCO2`, the IC50 (as a rule, the concentration that inhibits the measured activity by half) with Nucleic Acid [1] was 1.9 µM; in the experiment with HL-60 [2], 2 µM; with NCI-H460, 13 µM; in the experiment with ECV-304 [7], > 100 µM; in experiment [9] it was 10 µM. Further, the shift in melting temperature (ΔTm) (in general, the shift of the melting midpoint relative to a reference) with Nucleic Acid [3] worked out at 27.5 °C; with Nucleic Acid [8] it was 0.5 °C; with Nucleic Acid [11], 29 °C. Besides, the result in the experiment with HL-60 [4], in the experiment on Nucleic Acid [5], with Nucleic Acid [12] and with Nucleic Acid [14] was Active. The inhibition entry in the experiment with ECV-304 [6] was “inactive”. Also, in the experiment on ECV-304 [10], the result was inactive. Moreover, the inhibition entry in the experiment on HL-60 [13] is “Active”.
Regarding `COc1ccc2cc3[n+](c4c2c1N(CCCN1CCOCC1)C=C4)CCc1cc2c(cc1-3)OCO2`, the IC50 in the experiment on Nucleic Acid [1] is 4.3 µM; with HL-60 [2], 12.6 µM; with NCI-H460, 36 µM; in the experiment with ECV-304 [7], > 100 µM; in experiment [9], 30 µM. The values for the shift in melting temperature (ΔTm) in the experiment on Nucleic Acid [3], with Nucleic Acid [8] and in the experiment on Nucleic Acid [11] were 23 °C, 0 °C and 23 °C, respectively.
For `COc1ccc2cc3[n+](c4c2c1N(CCN(C)C)C=C4)CCc1cc2c(cc1-3)OCO2`, the concentration for half-maximal inhibition (IC50) in the experiment on Nucleic Acid [1] was 3.4 µM; in the experiment on HL-60 [2] it was 12 µM; in the experiment with NCI-H460 it was 60 µM; in the experiment with ECV-304 [7], > 100 µM; in [9], 31 µM. For the same compound, the shift in melting temperature (ΔTm) in the experiment with Nucleic Acid [3] was found to be 19.5 °C; with Nucleic Acid [8], 0 °C; in the experiment on Nucleic Acid [11], 20 °C.
Take `COc1ccc2cc3[n+](cc2c1NCCCCCCN)CCc1cc2c(cc1-3)OCO2`: the IC50 in the experiment on Nucleic Acid [1] was 2 µM; in the experiment with HL-60 [2] it was 5.5 µM; with NCI-H460, 9 µM; with ECV-304 [7], > 100 µM; in experiment [9], 4 µM. In addition, the outcome in the experiment with HL-60 [4] and in the experiment with ECV-304 [10] was Active. Moreover, the inhibition entry with ECV-304 [6] and in the experiment with HL-60 [13] was “Active” each time. Also, the figures for the ΔTm in the experiment on Nucleic Acid [8] and in the experiment on Nucleic Acid [11] were 2 °C and 29 °C, respectively.
For the compound `COc1ccc2cc3[n+](cc2c1NCCCN1CCOCC1)CCc1cc2c(cc1-3)OCO2`, the IC50 in the experiment with Nucleic Acid [1] is 4.8 µM; with HL-60 [2], 20.6 µM; in the experiment with NCI-H460, > 100 µM; in the experiment with ECV-304 [7], > 100 µM; in experiment [9], 85 µM. Also, the ΔTm in the experiment with Nucleic Acid [8] came to 0 °C; in the experiment with Nucleic Acid [11] it was 17 °C.
As for `COc1ccc2cc3[n+](cc2c1NCCCN(C)C)CCc1cc2c(cc1-3)OCO2`, the IC50 in the experiment with Nucleic Acid [1] was 3.3 µM; in the experiment on HL-60 [2], 27.5 µM; with NCI-H460 it was 64 µM; with ECV-304 [7], > 100 µM; in experiment [9], 29 µM. Also, the thermal shift (ΔTm) in the experiment with Nucleic Acid [8] came out at 1 °C; in the experiment with Nucleic Acid [11], 20 °C.
`COc1ccc2cc3[n+](cc2c1OC)CCc1cc2c(cc1-3)OCO2`: the ΔTm in the experiment with Nucleic Acid [8] was found to be 2 °C; in the experiment on Nucleic Acid [11], 1 °C.
Take `COc1ccc2cc3[n+](cc2c1NCCN(C)C)CCc1cc2c(cc1-3)OCO2`: the IC50 is 3.9 µM in the experiment on Nucleic Acid [1]; 38 µM in the experiment with HL-60 [2]; 56 µM in the experiment on NCI-H460; > 100 µM in the experiment with ECV-304 [7]; 36 µM in experiment [9]. The ΔTm with Nucleic Acid [8] is 0 °C; with Nucleic Acid [11], 19 °C.
Turning to `COc1ccc2cc3[n+](c4c2c1N(CCCN(C)C)C=C4)CCc1cc2c(cc1-3)OCO2`, the IC50 in the experiment on Nucleic Acid [1] was 3 µM; in the experiment with HL-60 [2] it was 8 µM; in the experiment on NCI-H460, 9 µM; in the experiment with ECV-304 [7], > 100 µM; in [9], 5 µM. In addition, the ΔTm turned out to be 24 °C with Nucleic Acid [3], 0 °C with Nucleic Acid [8] and 25 °C with Nucleic Acid [11].

The values above are taken from ChEMBL document CHEMBL1770141, “Quinolino-benzo-[5, 6]-dihydroisoquindolium compounds derived from berberine: a new class of highly selective ligands for G-quadruplex DNA in c-myc oncogene” (Eur J Med Chem, 2011).
